Assay results as given in article PMC5548886 (Cancer Medicine, 2017).
pEC50: −log10 of the molar value.

Experiments:
[1] = test system: locally advanced or metastatic melanoma; assay: Antitumor response by RECIST 1.0; format: in vivo, human
Method: Medical history and demographics were collected at screening. The safety of study medication was evaluated on the basis of rate, type, severity graded in accordance with NCI CTCAE version 3.0. Safety assessments consisted of collecting all AEs, serious adverse events (SAEs) with their severity and relationship with study drug, and pregnancies. They included the regular monitoring of hematology, blood chemistry and urine performed at the study center/central laboratory and regular assessments of vital signs, physical condition, body weight, performance status, and cardiac data (i.e. electrocardiogram (ECG)/echocardiogram (ECHO)). Abnormalities in clinical laboratory tests that were considered clinically significant by the Investigator were recorded on the AE CRF. Dose‐limiting toxicities (DLTs) were defined for various organ systems and other clinically relevant adverse effects (Table S1). The DLT window was the first cycle while AEs were captured for the entire course of treatment. Evaluation of tumor response was conducted at Baseline, and at the end of every 8 weeks of treatment. Response was assessed using the Response Evaluation Criteria in Solid Tumors (RECIST) 1.0. […] All patients discontinuing from the study for progressive disease were to have their disease progression documented by radiologic evaluation.

[2] = test system: soluble VEGFR-2 (sVEGFR-2); assay: Blood level by ELISA; format: in vivo, human; details: all dose levels, over time
Method: Pharmacodynamic markers were examined using peripheral blood samples, tumor and nevi biopsies (when available) and tumor imaging. BRAF mutation status was determined by Sanger sequencing. Pharmacodynamic markers analyzed, in available tumor/nevus samples obtained before treatment or archival tissue and during treatment on cycle 1, day 8 or day 15, including cytoplasmic p‐MEK, p‐ERK, BIM, c‐KIT, p‐AKT473, pS6 and PTEN, and nuclear p‐ERK, Ki‐67, PARP, cyclin D1, MITF, p27, and p53. Biomarker expression was determined by calculating the percentage of change in the H‐score (14) between on‐treatment and fresh/archival pretreatment specimens. Blood levels of VEGFR‐2 and were assessed before and at multiple time points while on treatment using enzyme‐linked immunosorbent assay (ELISA). […] Changes in standard uptake value (SUV) were determined by a blinded, independent central imaging review panel. Complete metabolic response (CMR) was complete resolution of tumor FDG‐PET uptake so SUV is the same as background. Partial metabolic response (PMR) decrease in sum of the tumor SUV of ≥25% from the baseline scan. Progressive metabolic disease (PMD) was defined as an increase in tumor SUV of ≥25% from the baseline scan, or the appearance of new FDG‐PET uptake in metastatic lesions. Stable metabolic disease (SMD) was defined as a change in tumor SUV between the PMR and PMD criteria.

wild-type BRAF protein = details: read-out: EC50 for the wild-type BRAF protein; preclinical; cited from earlier work
[3] = 33 patients with BRAF-WT melanomas
[4] = BRAF mutation, All patients, 33 evaluable
[5] = BRAF mutation, DL 5, 8 evaluable
[6] = BRAF mutation, DL 6, 10 evaluable
[7] = BRAF mutation, DLs 1 to 4, 6 evaluable
[8] = BRAF mutation, DLs 7 and 7.1, 9 evaluable
[9] = BRAF unspecified/unknown, All patients, 5 evaluable
[10] = BRAF unspecified/unknown, DL 5, 0 evaluable
[11] = BRAF unspecified/unknown, DL 6, 2 evaluable
[12] = BRAF unspecified/unknown, DLs 1 to 4, 1 evaluable
[13] = BRAF unspecified/unknown, DLs 7 and 7.1, 2 evaluable
[14] = BRAF wild-type, All patients, 28 evaluable
[15] = BRAF wild-type, DL 5, 5 evaluable
[16] = BRAF wild-type, DL 6, 8 evaluable
[17] = BRAF wild-type, DLs 1 to 4, 8 evaluable
[18] = BRAF wild-type, DLs 7 and 7.1, 7 evaluable
[19] = Total, All patients, 66 evaluable
[20] = Total, DLs 1 to 4, 15 evaluable
[21] = Total, DLs 7 and 7.1, 18 evaluable

SMILES: Cn1c(Nc2ccc(C(F)(F)F)cc2)nc2cc(Oc3ccnc(-c4ncc(C(F)(F)F)[nH]4)c3)ccc21 [RAF265]
- number of CR [1, 3]: one
- number of PR [1, 3]: two
- number of PR ([1]; 39 patients with BRAF V600E mutation): Four
- number of complete responses (CR) ([1]; 66 evaluable patients): one
- number of partial responses (PR) ([1]; 66 evaluable patients): seven
- objective response rate (ORR), RECIST ([1]; 66 evaluable patients, all dose levels): 12.1%
- Best response CR or PR ([1]; All patients, 66 evaluable): 8 (12.1) n (%)
- Best response CR, PR or SD ([1]; All patients, 66 evaluable): 35 (53) n (%)
- Complete response (CR), best overall response [1, 4]: 0 n (%)
- Partial response (PR), best overall response [1, 4]: 4 (12) n (%)
- Stable disease (SD), best overall response [1, 4]: 15 (46) n (%)
- Complete response (CR), best overall response [1, 5]: 0 n (%)
- Partial response (PR), best overall response [1, 5]: 1 (12.5) n (%)
- Progressive disease (PD), best overall response [1, 5]: 4 (50) n (%)
- Stable disease (SD), best overall response [1, 5]: 3 (37.5) n (%)
- Complete response (CR), best overall response [1, 6]: 0 n (%)
- Partial response (PR), best overall response [1, 6]: 1 (10) n (%)
- Progressive disease (PD), best overall response [1, 6]: 2 (20) n (%)
- Stable disease (SD), best overall response [1, 6]: 7 (70) n (%)
- Complete response (CR), best overall response [1, 7]: 0 n (%)
- Partial response (PR), best overall response [1, 7]: 2 (33.3) n (%)
- Progressive disease (PD), best overall response [1, 7]: 4 (66.7) n (%)
- Stable disease (SD), best overall response [1, 7]: 0 n (%)
- Complete response (CR), best overall response [1, 8]: 0 n (%)
- Partial response (PR), best overall response [1, 8]: 0 n (%)
- Progressive disease (PD), best overall response [1, 8]: 4 (44) n (%)
- Stable disease (SD), best overall response [1, 8]: 5 (56) n (%)
- Complete response (CR), best overall response [1, 9]: 0 n (%)
- Partial response (PR), best overall response [1, 9]: 1 (20) n (%)
- Progressive disease (PD), best overall response [1, 9]: 3 (60) n (%)
- Stable disease (SD), best overall response [1, 9]: 1 (20) n (%)
- Complete response (CR), best overall response [1, 10]: 0 n (%)
- Partial response (PR), best overall response [1, 10]: 0 n (%)
- Progressive disease (PD), best overall response [1, 10]: 0 n (%)
- Stable disease (SD), best overall response [1, 10]: 0 n (%)
- Complete response (CR), best overall response [1, 11]: 0 n (%)
- Partial response (PR), best overall response [1, 11]: 0 n (%)
- Progressive disease (PD), best overall response [1, 11]: 2 (100) n (%)
- Stable disease (SD), best overall response [1, 11]: 0 n (%)
- Complete response (CR), best overall response [1, 12]: 0 n (%)
- Partial response (PR), best overall response [1, 12]: 0 n (%)
- Progressive disease (PD), best overall response [1, 12]: 0 n (%)
- Stable disease (SD), best overall response [1, 12]: 1 (100) n (%)
- Complete response (CR), best overall response [1, 13]: 0 n (%)
- Partial response (PR), best overall response [1, 13]: 1 (50) n (%)
- Progressive disease (PD), best overall response [1, 13]: 1 (50) n (%)
- Stable disease (SD), best overall response [1, 13]: 0 n (%)
- Complete response (CR), best overall response [1, 14]: 1 (3.6) n (%)
- Stable disease (SD), best overall response [1, 14]: 11 (39.3) n (%)
- Complete response (CR), best overall response [1, 15]: 0 n (%)
- Partial response (PR), best overall response [1, 15]: 0 n (%)
- Progressive disease (PD), best overall response [1, 15]: 2 (40) n (%)
- Stable disease (SD), best overall response [1, 15]: 3 (60) n (%)
- Complete response (CR), best overall response [1, 16]: 0 n (%)
- Partial response (PR), best overall response [1, 16]: 1 (12.5) n (%)
- Progressive disease (PD), best overall response [1, 16]: 5 (62.5) n (%)
- Stable disease (SD), best overall response [1, 16]: 2 (25) n (%)
- Complete response (CR), best overall response [1, 17]: 0 n (%)
- Partial response (PR), best overall response [1, 17]: 1 (12.5) n (%)
- Progressive disease (PD), best overall response [1, 17]: 6 (75) n (%)
- Stable disease (SD), best overall response [1, 17]: 1 (12.5) n (%)
- Complete response (CR), best overall response [1, 18]: 1 (14.3) n (%)
- Partial response (PR), best overall response [1, 18]: 0 n (%)
- Progressive disease (PD), best overall response [1, 18]: 1 (14.3) n (%)
- Stable disease (SD), best overall response [1, 18]: 5 (71.4) n (%)
- Best response CR or PR ([1]; DL 5, 13 evaluable): 1 (7.7) n (%)
- Best response CR, PR or SD ([1]; DL 5, 13 evaluable): 7 (53.8) n (%)
- Best response CR or PR ([1]; DL 6, 20 evaluable): 2 (10) n (%)
- Best response CR, PR or SD ([1]; DL 6, 20 evaluable): 11 (55) n (%)
- Best response CR or PR ([1]; DLs 1 to 4, 15 evaluable): 3 (20) n (%)
- Best response CR, PR or SD ([1]; DLs 1 to 4, 15 evaluable): 5 (33.3) n (%)
- Best response CR or PR ([1]; DLs 7 and 7.1, 18 evaluable): 2 (11.1) n (%)
- Best response CR, PR or SD ([1]; DLs 7 and 7.1, 18 evaluable): 12 (66.7) n (%)
- Complete response (CR), best overall response [1, 19]: 1 (1.5) n (%)
- Partial response (PR), best overall response [1, 19]: 7 (10.6) n (%)
- Progressive disease (PD), best overall response [1, 19]: 31 (47) n (%)
- Stable disease (SD), best overall response [1, 19]: 27 (40.9) n (%)
- Complete response (CR), best overall response ([1]; Total, DL 5, 13 evaluable): 0 n (%)
- Partial response (PR), best overall response ([1]; Total, DL 5, 13 evaluable): 1 (7.7) n (%)
- Progressive disease (PD), best overall response ([1]; Total, DL 5, 13 evaluable): 6 (46.1) n (%)
- Stable disease (SD), best overall response ([1]; Total, DL 5, 13 evaluable): 6 (46.1) n (%)
- Complete response (CR), best overall response ([1]; Total, DL 6, 20 evaluable): 0 n (%)
- Partial response (PR), best overall response ([1]; Total, DL 6, 20 evaluable): 2 (10) n (%)
- Progressive disease (PD), best overall response ([1]; Total, DL 6, 20 evaluable): 9 (45) n (%)
- Stable disease (SD), best overall response ([1]; Total, DL 6, 20 evaluable): 9 (45) n (%)
- Complete response (CR), best overall response [1, 20]: 0 n (%)
- Partial response (PR), best overall response [1, 20]: 3 (20) n (%)
- Progressive disease (PD), best overall response [1, 20]: 10 (66.7) n (%)
- Stable disease (SD), best overall response [1, 20]: 2 (13.3) n (%)
- Complete response (CR), best overall response [1, 21]: 1 (5.6) n (%)
- Partial response (PR), best overall response [1, 21]: 1 (5.6) n (%)
- Progressive disease (PD), best overall response [1, 21]: 6 (33.3) n (%)
- Stable disease (SD), best overall response [1, 21]: 10 (55.6) n (%)
- number of PR ([1]; unknown BRAF mutation status): one
- sVEGFR-2 levels [2]: significant decrease
